Measurements taken from publication PMC10146604, “The Balance between Hydrophobicity/Aromaticity and Positively Charged Residues May Influence the Cell Penetration Ability” (Pharmaceutics, 2023).
Peptide text beside a SMILES is read from it. * marks the point of attachment. 5FAM = O=C1OC2(c3ccc(O)cc3Oc3cc(O)ccc32)c2ccc(C(=O)*)cc21; Dabcyl = CN(C)c1ccc(N=Nc2ccc(C(=O)*)cc2)cc1

Test system: EBC-1 human lung squamous carcinoma cells
Experiment: Cellular uptake by flow cytometry
Format: cell-based
Details: 90 min, 37 °C, trypsinization; for cellular uptake relative to the control octaarginine (Cf-Arg8) / cellular uptake (in words): 5 µM peptide, serum-free medium; for cellular uptake relative to the control octaarginine (Cf-Arg8): flow cytometry fluorescence intensity normalized to Cf-Arg8; for cellular uptake (in words): compared with Cf-Arg8
Procedure: For the examination of the internalization of the peptides, 10^5 cultured EBC-1 cells per well were plated on 24-well plates. The cells were incubated for 24 h at 37 °C then they were treated with peptides at different concentrations for 90 min in a serum-free medium. In the negative control the cells were treated with a serum-free medium. After the incubation, the peptide solutions were removed and 100 µL trypsin (0.25%) was added for 5–10 min to remove membrane bound peptides and detach the adherent cells from the plates. The activity of trypsin was terminated by the addition of 900 µL HPMI buffer (glucose, NaHCO3, NaCl, HEPES, KCl, MgCl2, CaCl2, Na2HPO4∙2H2O) containing 10% fetal bovine serum, and the cells were transferred from the plates to FACS-tubes for measurement. The cells were centrifuged at 216× g at 4 °C for 5 min and the supernatant was removed. The cells were resuspended in 250 µL HPMI, and the fluorescence intensity of the cells was quantified using flow cytometry (BD LSR II, BD Bioscience, San Jose, CA, USA). The data were analyzed with FACSDiva 5.0 software (BD Bioscience, San Jose, CA, USA).
The cellular uptake of the peptides was determined using flow cytometry on EBC-1 human lung squamous carcinoma cells. The peptides were added to the cells at a concentration of 5 µM for 90 min at 37 °C. Selected constructs were used to study the concentration dependence at 0.125, 1.25 and 2.5 µM with 90 min treatment times. When evaluating the measurements data, the fluorescence of cells treated with peptides was corrected with the autofluorescence of cells without peptide treatment. The toxicity of the peptide conjugates was determined by comparing the live and dead cells ratio during the flow cytometry analysis.

Row | SMILES | cellular uptake relative to the control octaarginine (Cf-Arg8) (EBC-1 cells) | cellular uptake (in words) (EBC-1 cells, flow cytometry) | other results
1 | CN(C)c1ccc(N=Nc2ccc(C(=O)N[C@@H](CCCNC(=N)N)C(=O)N[C@@H](CCCNC(=N)N)C(=O)N[C@@H](CCCNC(=N)N)C(=O)N[C@@H](CCCNC(=N)N)C(=O)N[C@@H](CCCNC(=N)N)C(=O)N[C@@H](CCCNC(=N)N)C(=O)N[C@@H](CCCNC(=N)N)C(=O)N[C@@H](CCCCNC(=O)c3ccc4c(c3)C(=O)OC43c4ccc(O)cc4Oc4cc(O)ccc43)C(N)=O)cc2)cc1 [Dabcyl-(Arg)7-Lys(Cf)] | 6 times | – | –
2 | CN(C)c1ccc(N=Nc2ccc(C(=O)NCc3ccc(C(=O)N[C@@H](CCCNC(=N)N)C(=O)N[C@@H](CCCNC(=N)N)C(=O)N[C@@H](CCCNC(=N)N)C(=O)N[C@@H](CCCNC(=N)N)C(=O)N[C@@H](CCCNC(=N)N)C(=O)N[C@@H](CCCNC(=N)N)C(=O)N[C@@H](CCCNC(=N)N)C(=O)N[C@@H](CCCNC(=N)N)C(=O)N[C@@H](CCCCNC(=O)c4ccc5c(c4)C(=O)OC54c5ccc(O)cc5Oc5cc(O)ccc54)C(N)=O)cc3)cc2)cc1 [Dabcyl-AMBA-(Arg)8-Lys(Cf)] | ~ 8 times | – | cellular uptake relative to Cf-Arg8 (EBC-1 cells, 1.25 µM peptide, flow cytometry): ~ 6 times; cellular uptake relative to octaarginine (EBC-1 cells, 2.5 µM peptide, flow cytometry): 30 times
3 | CN(C)c1ccc(N=Nc2ccc(C(=O)N[C@@H](CCCNC(=N)N)C(=O)N[C@@H](CCCNC(=N)N)C(=O)N[C@@H](CCCNC(=N)N)C(=O)N[C@@H](CCCNC(=N)N)C(=O)N[C@@H](CCCCNC(=O)c3ccc4c(c3)C(=O)OC43c4ccc(O)cc4Oc4cc(O)ccc43)C(N)=O)cc2)cc1 [Dabcyl-(Arg)4-Lys(Cf)] (Dabcyl-RRRRK(5FAM)-NH2) | – | lower cellular uptake than octaarginine | –
4 | CN(C)c1ccc(N=Nc2ccc(C(=O)NCCCC[C@H](NC(=O)[C@H](CCCNC(=N)N)NC(=O)[C@H](CCCNC(=N)N)NC(=O)[C@H](CCCNC(=N)N)NC(=O)[C@H](CCCNC(=N)N)NC(=O)[C@H](CCCNC(=N)N)NC(=O)[C@H](CCCNC(=N)N)NC(=O)c3ccc4c(c3)C(=O)OC43c4ccc(O)cc4Oc4cc(O)ccc43)C(N)=O)cc2)cc1 [Cf-(Arg)6-Lys(Dabcyl)] | – | surprisingly poor cellular uptake | cellular uptake compared with octaarginine at low concentrations (in words) (EBC-1 cells, 0.125, 1.25 and 2.5 µM peptide, flow cytometry): significantly decreased uptake
5 | CN(C)c1ccc(N=Nc2ccc(C(=O)N[C@@H](CCCNC(=N)N)C(=O)N[C@@H](CCCNC(=N)N)C(=O)N[C@@H](CCCNC(=N)N)C(=O)N[C@@H](CCCNC(=N)N)C(=O)N[C@@H](CCCNC(=N)N)C(=O)N[C@@H](CCCNC(=N)N)C(=O)N[C@@H](CCCCNC(=O)c3ccc4c(c3)C(=O)OC43c4ccc(O)cc4Oc4cc(O)ccc43)C(N)=O)cc2)cc1 [Dabcyl-(Arg)6-Lys(Cf)] | 6.5 times | – | –
